Experimental data as given in patent US4232166A, “15-Deoxy-16-hydroxy-17-methylene prostaglandins of the E and F series” (American Cyanamid Company, priority 1979, dated 1980).

How the values were obtained:
Format in all cases: in vivo
[1] = test system: bronchospasms elicited by serotonin; assay: Konzett procedure: bronchodilator activity in Guinea-Pigs against bronchospasms elicited by intravenous serotonin; conditions: Cavia porcellus, three logarithmic cumulative intravenous doses
Procedure: (§1) The bronchodilator activity for representative compounds of this invention was determined in Guinea-Pigs against bronchospasms elicited by intravenous injections of serotonin, histamine, and acetylcholine, by the Konzett procedure the details of which are those discussed by J. Lulling, P Lievens, F. El Sayed and J. Prignot, Arzeimittel-Forschung 18, 995 (1968).
(§2) In the table which follows, bronchodilator activity for representative compounds of the invention against spasmogenic agents serotonin, histamine, and acetylcholine is expressed as an ED50 determined from the results obtained with three logarithmic cumulative intravenous doses.

[2] = test system: bronchospasms elicited by histamine; assay: Konzett procedure: bronchodilator activity in Guinea-Pigs against bronchospasms elicited by intravenous histamine; conditions: Cavia porcellus, three logarithmic cumulative intravenous doses
Procedure: as §1, §2

[3] = test system: bronchospasms elicited by acetylcholine; assay: Konzett procedure: bronchodilator activity in Guinea-Pigs against bronchospasms elicited by intravenous acetylcholine; conditions: Cavia porcellus, three logarithmic cumulative intravenous doses, read-out: ED50 ACETYL CHOLINE
Procedure: as §1, §2

Compound | ED50 [1] [µg/kg] | ED50 [2] [µg/kg] | ED50 [3] [µg/kg]
C=C(CCC)C(O)C/C=C/[C@H]1[C@H](O)CC(=O)[C@@H]1C/C=C\CCCC(=O)O (relative stereo) [dl 9-oxo-11α,16-dihydroxy-17-methylene-5-cis, 13-trans-prostadienoic acid] | 5.4 | 10.6 | 24
C=C(CCC)C(C)(O)C/C=C/[C@H]1[C@H](O)CC(=O)[C@@H]1C/C=C\CCCC(=O)O (relative stereo) [dl 9-oxo-11α,16-dihydroxy-16-methyl-17-methylene-5-cis,13-trans-prostadienoic acid] | 2.5 | 1.2 | 3.6
